Source: patent publication US10344060B2 (priority 2013, dated 2019)

Assays:
hNav1.5 = hNav1.5 (Homo sapiens, UniProt Q14524); experiment: cell-based; conditions: Table 12; ratio of PX tonic IC50 values
hNav1.4 = hNav1.4 (Homo sapiens, UniProt P35499); experiment: cell-based; type: cell-based; conditions: Table 12; ratio of PX tonic IC50 values
Sequence of hNav1.4 (P35499 whole entry): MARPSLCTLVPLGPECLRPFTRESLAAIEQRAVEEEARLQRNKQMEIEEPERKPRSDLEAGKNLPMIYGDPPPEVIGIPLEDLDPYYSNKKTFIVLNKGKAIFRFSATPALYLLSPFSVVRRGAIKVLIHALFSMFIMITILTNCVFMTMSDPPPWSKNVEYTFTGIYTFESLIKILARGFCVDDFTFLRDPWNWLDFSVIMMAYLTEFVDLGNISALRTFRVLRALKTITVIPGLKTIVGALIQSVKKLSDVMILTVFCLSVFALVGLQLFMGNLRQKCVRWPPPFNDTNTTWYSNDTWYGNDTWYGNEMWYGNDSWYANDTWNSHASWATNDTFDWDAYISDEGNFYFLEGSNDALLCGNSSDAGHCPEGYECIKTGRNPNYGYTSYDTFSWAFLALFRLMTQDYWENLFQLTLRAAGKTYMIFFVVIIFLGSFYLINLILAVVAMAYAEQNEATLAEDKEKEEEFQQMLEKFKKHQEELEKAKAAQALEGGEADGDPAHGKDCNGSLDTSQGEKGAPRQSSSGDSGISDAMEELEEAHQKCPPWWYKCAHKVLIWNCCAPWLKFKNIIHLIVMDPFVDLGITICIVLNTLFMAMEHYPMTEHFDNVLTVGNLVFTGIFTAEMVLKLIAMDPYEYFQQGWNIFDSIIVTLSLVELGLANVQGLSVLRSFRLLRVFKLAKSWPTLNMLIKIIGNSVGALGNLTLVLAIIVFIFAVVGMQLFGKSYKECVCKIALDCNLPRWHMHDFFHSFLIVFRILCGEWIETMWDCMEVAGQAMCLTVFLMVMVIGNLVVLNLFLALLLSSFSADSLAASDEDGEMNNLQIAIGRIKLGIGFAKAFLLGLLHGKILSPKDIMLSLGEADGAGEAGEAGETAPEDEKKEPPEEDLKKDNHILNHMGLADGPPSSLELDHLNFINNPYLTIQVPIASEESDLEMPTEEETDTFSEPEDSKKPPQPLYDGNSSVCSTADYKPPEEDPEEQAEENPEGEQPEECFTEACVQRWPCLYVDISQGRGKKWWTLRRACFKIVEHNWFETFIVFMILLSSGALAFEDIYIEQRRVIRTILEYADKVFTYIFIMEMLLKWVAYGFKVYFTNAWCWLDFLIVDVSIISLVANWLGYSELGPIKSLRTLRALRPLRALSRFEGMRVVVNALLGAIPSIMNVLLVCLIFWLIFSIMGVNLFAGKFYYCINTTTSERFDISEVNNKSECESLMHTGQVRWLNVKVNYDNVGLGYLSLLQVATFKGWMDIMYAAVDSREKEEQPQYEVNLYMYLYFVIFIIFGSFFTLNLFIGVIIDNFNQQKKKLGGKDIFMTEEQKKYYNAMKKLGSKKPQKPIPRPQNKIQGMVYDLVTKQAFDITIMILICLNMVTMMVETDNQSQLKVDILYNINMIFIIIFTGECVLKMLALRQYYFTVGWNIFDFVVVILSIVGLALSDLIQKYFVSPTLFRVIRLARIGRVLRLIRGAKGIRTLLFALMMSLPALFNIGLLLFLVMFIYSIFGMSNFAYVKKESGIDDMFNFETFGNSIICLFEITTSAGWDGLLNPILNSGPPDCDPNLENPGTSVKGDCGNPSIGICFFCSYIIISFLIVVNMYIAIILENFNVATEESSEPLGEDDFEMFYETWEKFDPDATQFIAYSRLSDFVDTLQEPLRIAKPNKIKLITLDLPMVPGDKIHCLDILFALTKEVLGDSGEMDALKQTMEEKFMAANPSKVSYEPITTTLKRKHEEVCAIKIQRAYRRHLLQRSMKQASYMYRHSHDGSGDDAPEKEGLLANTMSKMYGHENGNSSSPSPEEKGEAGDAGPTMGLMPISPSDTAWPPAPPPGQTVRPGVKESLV

Sequence of hNav1.5 (Q14524 whole entry): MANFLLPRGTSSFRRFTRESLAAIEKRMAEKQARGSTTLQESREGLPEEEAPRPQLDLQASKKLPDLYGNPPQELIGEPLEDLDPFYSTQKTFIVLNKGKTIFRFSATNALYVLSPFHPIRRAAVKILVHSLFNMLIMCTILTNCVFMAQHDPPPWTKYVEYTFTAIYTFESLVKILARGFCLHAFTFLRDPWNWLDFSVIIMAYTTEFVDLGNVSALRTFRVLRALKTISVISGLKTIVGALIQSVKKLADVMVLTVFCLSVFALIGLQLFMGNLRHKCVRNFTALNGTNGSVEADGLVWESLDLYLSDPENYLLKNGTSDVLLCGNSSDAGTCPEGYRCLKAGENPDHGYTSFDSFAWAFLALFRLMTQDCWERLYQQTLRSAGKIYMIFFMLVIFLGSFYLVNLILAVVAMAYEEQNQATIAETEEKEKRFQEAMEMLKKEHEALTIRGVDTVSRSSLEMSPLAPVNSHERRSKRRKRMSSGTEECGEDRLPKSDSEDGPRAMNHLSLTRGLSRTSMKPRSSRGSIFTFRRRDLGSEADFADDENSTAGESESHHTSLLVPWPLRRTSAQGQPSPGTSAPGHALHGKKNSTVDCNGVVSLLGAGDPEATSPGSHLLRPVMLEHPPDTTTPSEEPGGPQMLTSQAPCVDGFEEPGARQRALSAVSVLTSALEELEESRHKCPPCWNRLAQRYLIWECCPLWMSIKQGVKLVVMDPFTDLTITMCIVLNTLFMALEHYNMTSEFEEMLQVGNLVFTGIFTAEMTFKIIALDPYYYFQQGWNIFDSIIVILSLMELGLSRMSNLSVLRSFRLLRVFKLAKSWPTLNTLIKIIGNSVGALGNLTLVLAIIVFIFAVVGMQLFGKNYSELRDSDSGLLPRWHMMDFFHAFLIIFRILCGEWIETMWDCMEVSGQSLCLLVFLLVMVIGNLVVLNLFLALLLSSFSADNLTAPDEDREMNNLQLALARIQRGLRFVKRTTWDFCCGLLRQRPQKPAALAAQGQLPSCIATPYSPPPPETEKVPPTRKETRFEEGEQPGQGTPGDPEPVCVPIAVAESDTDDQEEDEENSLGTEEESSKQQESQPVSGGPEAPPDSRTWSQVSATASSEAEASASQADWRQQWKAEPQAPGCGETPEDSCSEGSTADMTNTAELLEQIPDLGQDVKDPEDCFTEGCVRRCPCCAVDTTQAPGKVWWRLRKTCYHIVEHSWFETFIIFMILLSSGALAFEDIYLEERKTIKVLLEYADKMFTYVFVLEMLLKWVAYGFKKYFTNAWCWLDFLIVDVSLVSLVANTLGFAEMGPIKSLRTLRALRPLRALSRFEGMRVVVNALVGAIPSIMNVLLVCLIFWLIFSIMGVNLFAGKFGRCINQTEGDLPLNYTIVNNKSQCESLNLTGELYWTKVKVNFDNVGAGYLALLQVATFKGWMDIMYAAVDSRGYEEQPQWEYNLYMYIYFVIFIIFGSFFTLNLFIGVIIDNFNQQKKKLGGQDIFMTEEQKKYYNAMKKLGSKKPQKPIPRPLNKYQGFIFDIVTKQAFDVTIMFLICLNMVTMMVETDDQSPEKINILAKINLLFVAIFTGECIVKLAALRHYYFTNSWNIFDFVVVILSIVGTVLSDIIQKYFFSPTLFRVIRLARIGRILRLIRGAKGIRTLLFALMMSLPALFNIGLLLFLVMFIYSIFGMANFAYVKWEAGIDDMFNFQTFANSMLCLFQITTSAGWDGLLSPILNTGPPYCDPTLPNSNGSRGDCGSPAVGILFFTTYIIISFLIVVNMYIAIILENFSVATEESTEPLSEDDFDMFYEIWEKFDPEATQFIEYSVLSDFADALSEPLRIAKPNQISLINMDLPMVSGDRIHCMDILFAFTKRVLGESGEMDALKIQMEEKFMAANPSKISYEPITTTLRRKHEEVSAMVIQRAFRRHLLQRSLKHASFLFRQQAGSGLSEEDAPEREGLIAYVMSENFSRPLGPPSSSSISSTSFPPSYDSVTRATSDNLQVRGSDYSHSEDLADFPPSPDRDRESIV

Compound `CCCC[C@@H]1NC(=O)[C@H](Cc2c[nH]c3ccccc23)NC(=O)[C@H](CCCCN)NC(=O)[C@H](CCC(N)=O)NC(=O)[C@@H](NC(=O)[C@@H](N)CCN=[N+]=[N-])CSSC[C@@H]2NC(=O)[C@@H]3CSSC[C@@H](C(=O)N[C@@H](CCCNC(=N)N)C(=O)N[C@@H](CCCCN)C(=O)N[C@H](C(=O)N[C@@H](Cc4c[nH]c5ccccc45)C(N)=O)[C@@H](C)CC)NC(=O)[C@H](Cc4c[nH]c5ccccc45)NC(=O)[C@H](CC(C)C)NC(=O)[C@H](CCCCN)NC(=O)[C@H](CSSC[C@H](NC(=O)[C@H]([C@@H](C)O)NC(=O)[C@H](Cc4c[nH]c5ccccc45)NC1=O)C(=O)N[C@@H](CC(=O)O)C(=O)N[C@@H](CO)C(=O)N[C@@H](CCCCN)C(=O)N[C@@H](CCCNC(=N)N)C(=O)N[C@@H](C)C(=O)N3)NC(=O)[C@H](CCC(=O)O)NC(=O)[C@H](CC(C)C)NC(=O)CNC(=O)[C@H](CCC(=O)O)NC2=O` [compound 309] has a Nav1.5/Nav1.7 (hNav1.5) of 634 and a Nav1.4/Nav1.7 (hNav1.4) of 239.
`C#CC[C@H](N)C(=O)N[C@@H](Cc1ccc(O)cc1)C(=O)N[C@H]1CSSC[C@@H]2NC(=O)[C@@H]3CSSC[C@@H](C(=O)N[C@@H](CCCNC(=N)N)C(=O)N[C@@H](CCCCN)C(=O)N[C@@H](Cc4ccc(O)cc4)C(=O)N[C@H](C(N)=O)[C@@H](C)CC)NC(=O)[C@H](Cc4c[nH]c5ccccc45)NC(=O)[C@H](CC(C)C)NC(=O)[C@H](CCCCN)NC(=O)[C@H](CSSC[C@H](NC(=O)[C@H]([C@@H](C)O)NC(=O)[C@H](Cc4c[nH]c5ccccc45)NC(=O)[C@H](CCCC)NC(=O)[C@H](Cc4c[nH]c5ccccc45)NC(=O)[C@H](CCCCN)NC(=O)[C@H](CCC(N)=O)NC1=O)C(=O)N[C@@H](CC(=O)O)C(=O)N[C@@H](CO)C(=O)N[C@@H](CCCCN)C(=O)N[C@@H](CCCNC(=N)N)C(=O)N[C@@H](C)C(=O)N3)NC(=O)[C@H](CCC(=O)O)NC(=O)[C@H](CC(C)C)NC(=O)CNC(=O)[C@H](CCC(=O)O)NC2=O` [compound 313] gave a Nav1.5/Nav1.7 (hNav1.5) of 10226 and a Nav1.4/Nav1.7 (hNav1.4) of 2261.
Compound `C#CC[C@@H]1NC(=O)[C@H](CC(=O)O)NC(=O)[C@@H]2CSSC[C@@H]3NC(=O)[C@H](CCC(=O)O)NC(=O)[C@H](CC(C)C)NC(=O)CNC(=O)[C@H](CCC(=O)O)NC(=O)[C@H](CSSC[C@H](NC(=O)[C@@H](N)Cc4ccc(O)cc4)C(=O)N[C@@H](CCC(N)=O)C(=O)N[C@@H](CCCCN)C(=O)N[C@@H](Cc4c[nH]c5ccccc45)C(=O)N[C@@H](CCCC)C(=O)N[C@@H](Cc4c[nH]c5ccccc45)C(=O)N[C@@H]([C@@H](C)O)C(=O)N2)NC(=O)[C@H](CSSC[C@@H](C(=O)N[C@@H](CCCNC(=N)N)C(=O)N[C@@H](CCCCN)C(=O)N[C@@H](Cc2ccc(O)cc2)C(=O)N[C@H](C(N)=O)[C@@H](C)CC)NC(=O)[C@H](Cc2c[nH]c4ccccc24)NC(=O)[C@H](CC(C)C)NC(=O)[C@H](CCCCN)NC3=O)NC(=O)[C@H](C)NC(=O)[C@H](CCCNC(=N)N)NC(=O)[C@H](CCCCN)NC1=O` [compound 315] has a Nav1.5/Nav1.7 (hNav1.5) of 1914 and a Nav1.4/Nav1.7 (hNav1.4) of 643.
`C#CC[C@@H]1NC(=O)[C@H](CCCNC(=N)N)NC(=O)[C@H](CCCCN)NC(=O)[C@H](CO)NC(=O)[C@H](CC(=O)O)NC(=O)[C@@H]2CSSC[C@@H]3NC(=O)[C@H](CCC(=O)O)NC(=O)[C@H](CC(C)C)NC(=O)CNC(=O)[C@H](CCC(=O)O)NC(=O)[C@H](CSSC[C@H](NC(=O)[C@@H](N)Cc4ccc(O)cc4)C(=O)N[C@@H](CCC(N)=O)C(=O)N[C@@H](CCCCN)C(=O)N[C@@H](Cc4c[nH]c5ccccc45)C(=O)N[C@@H](CCCC)C(=O)N[C@@H](Cc4c[nH]c5ccccc45)C(=O)N[C@@H]([C@@H](C)O)C(=O)N2)NC(=O)[C@H](CSSC[C@@H](C(=O)N[C@@H](CCCNC(=N)N)C(=O)N[C@@H](CCCCN)C(=O)N[C@@H](Cc2ccc(O)cc2)C(=O)N[C@H](C(N)=O)[C@@H](C)CC)NC(=O)[C@H](Cc2c[nH]c4ccccc24)NC(=O)[C@H](CC(C)C)NC(=O)[C@H](CCCCN)NC3=O)NC1=O` [compound 316] gave a Nav1.5/Nav1.7 (hNav1.5) of 2099 and a Nav1.4/Nav1.7 (hNav1.4) of 402.
`C#CC[C@@H]1NC(=O)[C@@H]2CSSC[C@H](NC(=O)[C@@H](N)Cc3ccc(O)cc3)C(=O)N[C@@H](CCC(N)=O)C(=O)N[C@@H](CCCCN)C(=O)N[C@@H](Cc3c[nH]c4ccccc34)C(=O)N[C@@H](CCCC)C(=O)N[C@@H](Cc3c[nH]c4ccccc34)C(=O)N[C@@H]([C@@H](C)O)C(=O)N[C@H]3CSSC[C@H](NC(=O)[C@H](CCC(=O)O)NC(=O)[C@H](CC(C)C)NC(=O)CNC1=O)C(=O)N[C@@H](CCCCN)C(=O)N[C@@H](CC(C)C)C(=O)N[C@@H](Cc1c[nH]c4ccccc14)C(=O)N[C@H](C(=O)N[C@@H](CCCNC(=N)N)C(=O)N[C@@H](CCCCN)C(=O)N[C@@H](Cc1ccc(O)cc1)C(=O)N[C@H](C(N)=O)[C@@H](C)CC)CSSC[C@H](NC(=O)[C@H](C)NC(=O)[C@H](CCCNC(=N)N)NC(=O)[C@H](CCCCN)NC(=O)[C@H](CO)NC(=O)[C@H](CC(=O)O)NC3=O)C(=O)N2` [compound 317] was tested, and the Nav1.5/Nav1.7 (hNav1.5) was 927 and the Nav1.4/Nav1.7 (hNav1.4) was 161.
Work on `C#CC[C@H](N)C(=O)N[C@H]1CSSC[C@@H]2NC(=O)[C@@H]3CSSC[C@@H](C(=O)N[C@@H](CCCNC(=N)N)C(=O)N[C@@H](CCCCN)C(=O)N[C@@H](CCC(=O)O)C(=O)N[C@H](C(N)=O)[C@@H](C)CC)NC(=O)[C@H](Cc4c[nH]c5ccccc45)NC(=O)[C@H](CC(C)C)NC(=O)[C@H](CCCCN)NC(=O)[C@H](CSSC[C@H](NC(=O)[C@H]([C@@H](C)O)NC(=O)[C@H](Cc4c[nH]c5ccccc45)NC(=O)[C@H](CCCC)NC(=O)[C@H](Cc4c[nH]c5ccccc45)NC(=O)[C@H](CCCCN)NC(=O)[C@H](CCC(N)=O)NC1=O)C(=O)N[C@@H](CC(=O)O)C(=O)N[C@@H](CO)C(=O)N[C@@H](CCCCN)C(=O)N[C@@H](CCCNC(=N)N)C(=O)N[C@@H](C)C(=O)N3)NC(=O)[C@H](CCCNC(=N)N)NC(=O)[C@H](CC(C)C)NC(=O)CNC(=O)[C@H](CCC(=O)O)NC2=O` [compound 329] yielded a Nav1.5/Nav1.7 (hNav1.5) of 17167 and a Nav1.4/Nav1.7 (hNav1.4) of 555.
With `C#CC[C@@H]1NC(=O)[C@H](CC(=O)O)NC(=O)[C@@H]2CSSC[C@@H]3NC(=O)[C@H](CCCNC(=N)N)NC(=O)[C@H](CC(C)C)NC(=O)CNC(=O)[C@H](CCC(=O)O)NC(=O)[C@H](CSSC[C@H](NC(=O)[C@@H](N)Cc4ccc(O)cc4)C(=O)N[C@@H](CCC(N)=O)C(=O)N[C@@H](CCCCN)C(=O)N[C@@H](Cc4c[nH]c5ccccc45)C(=O)N[C@@H](CCCC)C(=O)N[C@@H](Cc4c[nH]c5ccccc45)C(=O)N[C@@H]([C@@H](C)O)C(=O)N2)NC(=O)[C@H](CSSC[C@@H](C(=O)N[C@@H](CCCNC(=N)N)C(=O)N[C@@H](CCCCN)C(=O)N[C@@H](CCC(=O)O)C(=O)N[C@H](C(N)=O)[C@@H](C)CC)NC(=O)[C@H](Cc2c[nH]c4ccccc24)NC(=O)[C@H](CC(C)C)NC(=O)[C@H](CCCCN)NC3=O)NC(=O)[C@H](C)NC(=O)[C@H](CCCNC(=N)N)NC(=O)[C@H](CCCCN)NC1=O` [compound 330] the Nav1.5/Nav1.7 (hNav1.5) was 7841 and the Nav1.4/Nav1.7 (hNav1.4) was 291.
With `C#CC[C@@H]1NC(=O)[C@H](CCCNC(=N)N)NC(=O)[C@H](CCCCN)NC(=O)[C@H](CO)NC(=O)[C@H](CC(=O)O)NC(=O)[C@@H]2CSSC[C@@H]3NC(=O)[C@H](CCCNC(=N)N)NC(=O)[C@H](CC(C)C)NC(=O)CNC(=O)[C@H](CCC(=O)O)NC(=O)[C@H](CSSC[C@H](NC(=O)[C@@H](N)Cc4ccc(O)cc4)C(=O)N[C@@H](CCC(N)=O)C(=O)N[C@@H](CCCCN)C(=O)N[C@@H](Cc4c[nH]c5ccccc45)C(=O)N[C@@H](CCCC)C(=O)N[C@@H](Cc4c[nH]c5ccccc45)C(=O)N[C@@H]([C@@H](C)O)C(=O)N2)NC(=O)[C@H](CSSC[C@@H](C(=O)N[C@@H](CCCNC(=N)N)C(=O)N[C@@H](CCCCN)C(=O)N[C@@H](CCC(=O)O)C(=O)N[C@H](C(N)=O)[C@@H](C)CC)NC(=O)[C@H](Cc2c[nH]c4ccccc24)NC(=O)[C@H](CC(C)C)NC(=O)[C@H](CCCCN)NC3=O)NC1=O` [compound 331] the Nav1.5/Nav1.7 (hNav1.5) was 7119 and the Nav1.4/Nav1.7 (hNav1.4) was 213.
With `C#CC[C@@H]1NC(=O)[C@@H]2CSSC[C@H](NC(=O)[C@@H](N)Cc3ccc(O)cc3)C(=O)N[C@@H](CCC(N)=O)C(=O)N[C@@H](CCCCN)C(=O)N[C@@H](Cc3c[nH]c4ccccc34)C(=O)N[C@@H](CCCC)C(=O)N[C@@H](Cc3c[nH]c4ccccc34)C(=O)N[C@@H]([C@@H](C)O)C(=O)N[C@H]3CSSC[C@H](NC(=O)[C@H](CCCNC(=N)N)NC(=O)[C@H](CC(C)C)NC(=O)CNC1=O)C(=O)N[C@@H](CCCCN)C(=O)N[C@@H](CC(C)C)C(=O)N[C@@H](Cc1c[nH]c4ccccc14)C(=O)N[C@H](C(=O)N[C@@H](CCCNC(=N)N)C(=O)N[C@@H](CCCCN)C(=O)N[C@@H](CCC(=O)O)C(=O)N[C@H](C(N)=O)[C@@H](C)CC)CSSC[C@H](NC(=O)[C@H](C)NC(=O)[C@H](CCCNC(=N)N)NC(=O)[C@H](CCCCN)NC(=O)[C@H](CO)NC(=O)[C@H](CC(=O)O)NC3=O)C(=O)N2` [compound 332] the Nav1.5/Nav1.7 (hNav1.5) was 849 and the Nav1.4/Nav1.7 (hNav1.4) was 34.
`C#CC[C@H](N)C(=O)N[C@H]1CSSC[C@@H]2NC(=O)[C@@H]3CSSC[C@@H](C(=O)N[C@@H](CCCNC(=N)N)C(=O)N[C@@H](CCCCN)C(=O)N[C@H](C(=O)N[C@H](C(N)=O)[C@@H](C)CC)[C@@H](C)CC)NC(=O)[C@H](Cc4c[nH]c5ccccc45)NC(=O)[C@H](CC(C)C)NC(=O)[C@H](CCCCN)NC(=O)[C@H](CSSC[C@H](NC(=O)[C@H]([C@@H](C)O)NC(=O)[C@H](Cc4c[nH]c5ccccc45)NC(=O)[C@H](CCCC)NC(=O)[C@H](Cc4c[nH]c5ccccc45)NC(=O)[C@H](CCCCN)NC(=O)[C@H](CCC(N)=O)NC1=O)C(=O)N[C@@H](CC(=O)O)C(=O)N[C@@H](CO)C(=O)N[C@@H](CCCCN)C(=O)N[C@@H](CCCNC(=N)N)C(=O)N[C@@H](C)C(=O)N3)NC(=O)[C@H](CCC(=O)O)NC(=O)[C@H](CC(C)C)NC(=O)CNC(=O)[C@H](CCC(=O)O)NC2=O` [compound 343] gave a Nav1.5/Nav1.7 (hNav1.5) of 1011 and a Nav1.4/Nav1.7 (hNav1.4) of 300.
